Literature values as cited in patent publication EP0072762B1, “Fluorinated diaminoalkene derivatives” (priority 1981, dated 1983).

Tested on: tumor
Conditions: administered intravenously once or twice a week, cited from earlier work

SMILES: CC(C=NNC(=N)N)=NNC(=N)N [MGBG, methylglyoxal bis(guanylhydrazone)]
- complete disappearance of the diseases (65 treated patients): two of the 65 treated patients
- regression of the tumor (patients in advanced stages of various carcinomas, lymphoma, leukemia etc.): measurable regression of the tumor in many of the patients treated
